For 9 molecules, side effects, Ratio and IC50 results are on record in patent publication US6262106A, “Adamantanecarboximidamide derivatives and their use as NMDA antagonists” (priority 1998, dated 2001).

Molecules are shown by their SMILES. Structures can show the parent of a compound that is named as a salt.

For series [1] the following is noted: known NMDA antagonists, administration; cited from earlier work.
Series [2] relates to PCP site of the NMDA receptor (cortical NMDA receptors). As to the kind of experiment: NMDA receptor binding, [3H]-MK-801 displacement at PCP site, rat cortical membranes. As to conditions: for Ratio: (IC50 Cortex / IC50 Cerebellum); for IC50: rat cortex membranes, [3H]-MK-801 5 nM, 10 μM glutamate, 10 μM glycine, 120 min, room temperature. From the text: (§1) The NMDA receptor contains several distinct binding domains that can regulate opening of the cationic channel. The phencyclidine (PCP) site of the NMDA receptor can be radiolabelled with [^3 H]-(+)-5-methyl-10,11-dihydro-5H-dibenzo[a,d]cyclohepten-5,10-imine hydrogen maleate, [^3 H-MK-801]. The following describes the procedure for determining the affinity of compounds for the PCP site in rat cortical or cerebellar membranes.
(§2) Frozen rat cortex or cerebellum, homogenized in 10 volumes of ice-cold 0.32-M. sucrose is centrifuged at 1,000 g for 12 min and the supernatant stored on ice whilst the pellet is resuspended, rehomogenized and recentrifuged twice more. The three final supernatants are pooled and centrifuged at 30,000 g for 40 min at 4° C. to yield P2 pellets. These are resuspended in ice-cold distilled water, and centrifuged at 30,000 g for 50 min at 4° C. Following three further washes in distilled water, the P2 pellets are stored at -20° C. for at least 18 h. On the day of the assay, membrane pellets are thawed at room temperature, resuspended in ice-cold distilled water and centrifuged at 30,000 g for 20 min. The pellets are resuspended in 50-mM tris-HCl (pH:7.4) and recentrifuged twice more before being resuspended in tris-HCl for immediate use in the assay. Binding assays are performed at equilibrium in a total volume of 200 μL, containing [^3 H]-MK-801 (5-nM final conc.), 10-μM glutamate, 10-μM glycine, 160 μL of membrane preparation and additional drugs where appropriate. Non-specific binding is determined using MK-801 (10-μM). The assay is incubated for 120 min at room temperature. The incubation is terminated by rapid filtration through Whatman GF/B filters (pre-soaked in 0.1% PEI solution). The assay tubes and filters are washed five times with 1 mL of ice-cold assay buffer. The filters are placed in poly-Q mini vials with approximately 5 mL of scintillation fluid. The vials are then shaken and left for at least 8 h before being counted on a liquid scintillation counter. To determine the free ligand concentration 3 aliquots (20 μL) of the [^3 H]-MK-801 working solution are also counted. Concentration response data for drugs is analysed using a 4 parameter equation fitted by non-linear regression. This yields the half maximally effective drug concentration (IC50) and Hill coefficient.

The target in series [3] is PCP site of the NMDA receptor (cerebellar NMDA receptors). As to the kind of experiment: NMDA receptor binding, [3H]-MK-801 displacement at PCP site, rat cerebellar membranes. As to conditions: rat cerebellum membranes; [3H]-MK-801 5 nM; 10 μM glutamate, 10 μM glycine; 120 min, room temperature.
Text: as §1, §2

Turning to `CCc1cccc(N(C)C(N)=Nc2cccc3ccccc23)c1` [Cerestat], in series [1], the side effects result was “perceptual and cognitive disturbances of a kind that resemble naturally-occurring psychotic states”.
With `C[C@]12N[C@H](Cc3ccccc31)c1ccccc12` [Dizocilpine], in series [1], the side effects result is “perceptual and cognitive disturbances of a kind that resemble naturally-occurring psychotic states”.
As usually defined, the IC50 is the concentration needed to halve the response being measured. Take `Cc1ccc(C2(C(=N)N)C3CC4CC(C3)CC2C4)cc1` (stereo not shown) [Example 4, 2-(4-Methylphenyl)-2-adamantanecarboximidamide hydrochloride]: in series [2], the Ratio is recorded as 1.9 and the 50% inhibitory concentration (IC50) turned out to be 105 µM. Also, the IC50 in series [3] worked out at 56 µM.
The matching figures for `Cc1ccccc1C1(C(=N)N)C2CC3CC(C2)CC1C3.Cl` (stereo not shown) [Example 5, 2-(2-Methylphenyl)-2-adamantanecarboximidamide hydrochloride]: 1.7, 53 µM and 31 µM.
The matching figures for `N=C(N)C1(c2ccc(F)cc2)C2CC3CC(C2)CC1C3` (stereo not shown) [Example 6, 2-(4-Fluorophenyl)-2-adamantanecarboximidamide hydrochloride]: 1.8, 44 µM and 25 µM.
Taken in the same sequence, the figures for `N=C(N)C1(c2ccc(Cl)cc2)C2CC3CC(C2)CC1C3` (stereo not shown) [Example 7, 2-(4-Chlorophenyl)-2-adamantanecarboximidamide hydrochloride] were 1.7, 59 µM and 34 µM.
Regarding `COc1ccc(C2(C(=N)N)C3CC4CC(C3)CC2C4)cc1` (stereo not shown) [Example 8, 2-(4-Methoxyphenyl)-2-adamantanecarboximidamide hydrochloride], in series [2], the Ratio is on record as 2.0 and the IC50 came to 45 µM. This molecule gave an IC50 in series [3] of 22 µM.
For the molecule `CNC1(c2ccccc2Cl)CCCCC1=O` (stereo not shown) [Ketamine], the side effects entry in series [1] is “perceptual and cognitive disturbances of a kind that resemble naturally-occurring psychotic states”.
Consider `c1ccc(C2(N3CCCCC3)CCCCC2)cc1` [PCP, phencyclidine], for which the side effects entry in series [1] was “perceptual and cognitive disturbances of a kind that resemble naturally-occurring psychotic states”.
